One assay has as its target T1, EGFR (Homo sapiens, UniProt P00533).
T1 construct: The intracellular portion of EGFR started at nucleotide 2189 (corresponding to amino acid 667) and ended at the termination codon; made in house; host or cells: Sf9 insect cells (baculovirus)
The experiment in a line: EGFR Kinase Assay. The class given is biochemical. The note with it: for inhibition at 2 µM: test concentration of 2 μM, read-out: EGFR percent inhibition. Summed up:
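GST-fused EGFR intracellular domain (aa 667 to end), Sf9-expressed, phosphorylating biotinylated polyGluTyr with 5 μM ATP plus γ-33P ATP in Tris pH 8.0, MgCl2, vanadate, 1 mM DTT; 1 h, 30 °C, streptavidin Flashplate scintillation read. Triplicate 16-point half-log series from 200 uM; IC50 from % inhibition vs log concentration, else % inhibition at 2 μM.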

The target in another assay is T2, HER-2 (Homo sapiens, UniProt P04626).
T2 construct: the nucleotides encoding amino acids 679 to 1255 of HER-2; purchased Proqinase (Freiburg, Germany)
T2 sequence (P04626 679-1255): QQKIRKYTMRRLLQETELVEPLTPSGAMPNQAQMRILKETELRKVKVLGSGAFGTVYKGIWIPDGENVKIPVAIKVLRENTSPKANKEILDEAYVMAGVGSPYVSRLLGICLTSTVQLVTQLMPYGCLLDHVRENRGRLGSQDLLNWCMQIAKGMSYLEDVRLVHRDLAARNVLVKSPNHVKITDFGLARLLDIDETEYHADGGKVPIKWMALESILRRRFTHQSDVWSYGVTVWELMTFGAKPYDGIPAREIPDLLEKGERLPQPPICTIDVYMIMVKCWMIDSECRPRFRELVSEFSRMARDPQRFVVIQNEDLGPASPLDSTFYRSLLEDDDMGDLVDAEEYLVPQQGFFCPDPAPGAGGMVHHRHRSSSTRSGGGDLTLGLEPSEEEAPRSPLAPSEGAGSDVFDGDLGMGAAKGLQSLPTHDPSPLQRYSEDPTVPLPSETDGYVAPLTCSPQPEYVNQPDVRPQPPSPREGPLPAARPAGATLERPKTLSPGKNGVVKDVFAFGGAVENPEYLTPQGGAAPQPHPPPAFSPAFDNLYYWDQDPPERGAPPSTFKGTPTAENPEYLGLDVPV
The experiment in a line: HER-2 Kinase Assay. It is filed as biochemical. The note with it: test concentration of 1 μM; read-out: HER-2 percent inhibition. Summed up: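 GST-HIS6-thrombin fusion of HER-2 residues 679–1255, assayed with biotinylated polyGluTyr, 1 μM ATP plus γ-33P-ATP, Mg2+, Mn2+ and vanadate in Hepes pH 7.5 for 1 h at 30 °C. Incorporation read by streptavidin Flashplate scintillation counting; IC50 values, or % inhibition at 1 μM.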

The target in the next assay is T3, VEGF-R2 (Rattus norvegicus, UniProt O08775).
T3 construct: polyhistidine (N)
T3 sequence (O08775 786-1343): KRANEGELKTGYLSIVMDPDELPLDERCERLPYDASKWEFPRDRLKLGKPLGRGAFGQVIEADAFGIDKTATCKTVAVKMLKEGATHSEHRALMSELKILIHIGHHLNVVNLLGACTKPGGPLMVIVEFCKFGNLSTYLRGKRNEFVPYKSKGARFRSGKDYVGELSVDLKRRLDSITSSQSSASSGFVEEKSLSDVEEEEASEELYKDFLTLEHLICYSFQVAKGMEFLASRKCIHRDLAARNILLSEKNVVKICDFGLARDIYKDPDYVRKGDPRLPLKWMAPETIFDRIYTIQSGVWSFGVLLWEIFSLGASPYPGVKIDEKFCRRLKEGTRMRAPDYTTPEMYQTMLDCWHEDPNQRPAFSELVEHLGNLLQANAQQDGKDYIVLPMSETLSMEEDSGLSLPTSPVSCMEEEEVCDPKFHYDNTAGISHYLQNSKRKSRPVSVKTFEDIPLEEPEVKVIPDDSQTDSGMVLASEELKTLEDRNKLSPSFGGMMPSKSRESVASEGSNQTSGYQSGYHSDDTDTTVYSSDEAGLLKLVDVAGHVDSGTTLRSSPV
The experiment in a line: VEGF-R2 Screening Assay. The class given is biochemical. The note with it: test concentration of 1 μM; read-out: VEGF-R2 percent inhibition.

In a further assay the target is T4, Aurora-A (Mus musculus, UniProt P97477).
T4 construct: followed by the full length protein encoding the murine Aurora-A; polyhistidine (N); made in house; host or cells: sf9 insect cells
T4 sequence (P97477 1-395): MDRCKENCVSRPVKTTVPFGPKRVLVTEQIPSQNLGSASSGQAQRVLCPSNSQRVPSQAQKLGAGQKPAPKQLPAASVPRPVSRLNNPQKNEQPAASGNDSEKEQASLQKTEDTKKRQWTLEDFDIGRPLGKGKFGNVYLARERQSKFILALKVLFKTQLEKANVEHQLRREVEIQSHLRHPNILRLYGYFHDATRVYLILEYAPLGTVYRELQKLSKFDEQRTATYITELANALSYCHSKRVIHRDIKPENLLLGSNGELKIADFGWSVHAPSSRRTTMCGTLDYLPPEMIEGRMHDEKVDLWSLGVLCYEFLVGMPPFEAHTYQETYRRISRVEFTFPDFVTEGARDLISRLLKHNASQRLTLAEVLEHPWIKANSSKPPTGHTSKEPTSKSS
The experiment in a line: Aurora-A Screening Assay. It is filed as biochemical, murine. The following applies: test concentration of 1 μM; read-out: Aurora-A percent inhibition.

T1 sequence (P00533 669-1210 limits assumed): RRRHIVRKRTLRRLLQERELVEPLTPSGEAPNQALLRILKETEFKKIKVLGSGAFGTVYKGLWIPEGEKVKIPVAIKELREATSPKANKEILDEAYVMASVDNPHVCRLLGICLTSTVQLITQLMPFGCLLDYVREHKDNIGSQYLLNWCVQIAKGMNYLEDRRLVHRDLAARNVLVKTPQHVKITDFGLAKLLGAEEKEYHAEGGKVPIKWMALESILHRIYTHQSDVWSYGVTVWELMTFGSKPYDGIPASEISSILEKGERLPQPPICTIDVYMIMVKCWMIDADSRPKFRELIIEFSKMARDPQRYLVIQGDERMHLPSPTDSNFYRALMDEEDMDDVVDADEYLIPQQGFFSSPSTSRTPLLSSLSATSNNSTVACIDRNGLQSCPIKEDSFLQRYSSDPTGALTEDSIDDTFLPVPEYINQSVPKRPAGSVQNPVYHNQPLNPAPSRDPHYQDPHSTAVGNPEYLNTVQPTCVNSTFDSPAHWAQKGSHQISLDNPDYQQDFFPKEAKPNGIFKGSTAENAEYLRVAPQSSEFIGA

Consider `N#Cc1cnc2sc(C(=O)Nc3ccccn3)c3c2c1N(c1c(Cl)ccc2c1OCO2)C(=O)N3` [Cpd 37, 5-(5-chloro-benzo[1,3]dioxol-4-yl)-6-cyano-4-oxo-4,5-dihydro-3H-1-thia-3,5,8-triaza-acenaphthylene-2-carboxylic acid pyridin-2-ylamide], for which the inhibition at 2 µM at EGFR amounted to 10%. For the same compound, the figures for the inhibition at 1 µM at HER-2, on VEGF-R2 and on Aurora-A were 11%, -22% and 3%, respectively.

For `N#Cc1cnc2sc(C(=O)Nc3cc[nH]n3)c3c2c1N(c1c(Cl)ccc2c1OCO2)C(=O)N3` [Cpd 33, 5-(5-chloro-benzo[1,3]dioxol-4-yl)-6-cyano-4-oxo-4,5-dihydro-3H-1-thia-3,5,8-triaza-acenaphthylene-2-carboxylic acid (1H-pyrazol-3-yl)-amide], the IC50 against EGFR was 1.22 µM. Besides, the values for the inhibition at 1 µM on HER-2, on VEGF-R2 and at Aurora-A were 37%, 18% and 29%, respectively.

Take `CC1COCC(C)N1Cc1ccc(NC(=O)c2sc3ncc(C#N)c4c3c2NC(=O)N4c2c(Cl)ccc3c2OCO3)cc1` (stereo not drawn) [Cpd 24, 5-(5-chloro-benzo[1,3]dioxol-4-yl)-6-cyano-4-oxo-4,5-dihydro-3H-1-thia-3,5,8-triaza-acenaphthylene-2-carboxylic acid [4-(3,5-dimethyl-morpholin-4-ylmethyl)-phenyl]-amide]: the inhibition at 2 µM on EGFR turned out to be 24%. Further, the inhibition at 1 µM was 12% at HER-2, 14% on VEGF-R2 and 7% at Aurora-A.

(Values after patent US7427625B2, “Substituted thiatriazaacenaphthylene-6-carbonitrile kinase inhibitors” (Janssen Pharmaceutica, N.V., priority 2006, dated 2008).)
